Laboratory results as given in patent US12194039B2, “Methods of treating heart failure by administering omecamtiv mecarbil” (Cytokinetics, Inc., priority 2020, dated 2025).
Read-outs that look alike come from different tables or passages of the source.

System: patients with HFrEF by ejection fraction quartile
Assay type: in vivo, human
Design: Change from baseline in KCCQ Total Symptom Score, least square mean / KCCQ Total Symptom Score Inpatient, Treatment Difference, least squares mean / KCCQ Total Symptom Score Outpatient, Treatment Difference, least squares mean / KCCQ Total Symptom Score, Treatment Difference, least squares mean: scale not given here
Conditions: for Adjudicated First Major Cardiac Ischemic Events, % / Adjudicated First Stroke, % / Adverse Event: Ventricular Tachyarrhythmia, % / All-cause Death (%) / All-cause Death Rate / All-cause Death n/N / Any treatment Emergent Serious Adverse Events, % / Positively Adjudicated Myocardial Infarction, % / Serious Adverse Event: Ventricular Arrhythmia Requiring Treatment, % / 1st HF Hospitalization (%) / 1st HF Hospitalization Rate / 1st HF Hospitalization n/N / First HF Event (%) / First HF Event Rate / First HF Event n/N / Primary Outcome (%) / Primary Outcome Rate / Primary Outcome n/N / Total HF Events, Events / Total HF Events, Rate / Total HF Hospitalizations, Events / Total HF Hospitalizations, Rate: OM group; for Adjudicated First Major Cardiac Ischemic Events, Relative Risk / Adjudicated First Stroke, Relative Risk / Adverse Event: Ventricular Tachyarrhythmia, Relative Risk / All-cause Death ARR / All-cause Death HR (95% CI) / Any treatment Emergent Serious Adverse Events, Relative Risk / Positively Adjudicated Myocardial Infarction, Relative Risk / Serious Adverse Event: Ventricular Arrhythmia Requiring Treatment, Relative Risk / 1st HF Hospitalization ARR / 1st HF Hospitalization HR (95% CI) / First HF Event ARR / First HF Event HR (95% CI) / Primary Outcome ARR / Primary Outcome HR (95% CI) / Total HF Events, ARR / Total HF Events, Ratio (95% CI) / Total HF Hospitalizations, ARR / Total HF Hospitalizations, Ratio (95% CI): OM vs placebo
Description: Continuous variables were summarized via means and standard deviations or medians and interquartile ranges, as appropriate. Categorical variables are summarized with counts and percentages. Tests of trend across categories were conducted via linear regression, Cuzick's non-parametric trend test, and Chi-squared tests of trend, respectively. Treatment effects on continuous outcomes were assessed via linear regression models adjusted for the corresponding baseline value of the parameter of interest. Survival analyses were conducted using Poisson regression models to estimate incidence rates, rate differences, and rate ratios and Cox proportional hazards models to estimate hazard ratios. […] To allow for potentially non-linear associations between ejection fraction and time-to-event outcomes, restricted cubic splines were utilized in the Poisson regression models with 3 knots. All analyses were conducted using STATA 16 (College Station, Tex.). P-values <0.05 were considered statistically significant. Due to the exploratory nature of these analyses, no adjustments were made for multiple comparisons.
Within each randomization setting subgroup least squares mean is from the mixed model which includes baseline total symptom score value, region, baseline eGFR, scheduled visit, treatment group and interaction of treatment with scheduled visit as covariates. Influence of Ejection Fraction on the Treatment Effect of Omecamtiv Mecarbil

[1] = EF 23-28%, baseline to Week 24, vs placebo
[2] = EF 29-32%, baseline to Week 24, vs placebo

COC(=O)N1CCN(Cc2cccc(NC(=O)Nc3ccc(C)nc3)c2F)CC1 [omecamtiv mecarbil]
Adjudicated First Major Cardiac Ischemic Events, % (EF22%): 4.8% | Adjudicated First Stroke, % (EF22%): 1.5% | Adverse Event: Ventricular Tachyarrhythmia, % (EF22%): 9.8% | All-cause Death (%) (EF22%): (29%) | All-cause Death Rate (EF22%): 17.0 per 100 patient years | All-cause Death n/N (EF22%): 329/1127 | Any treatment Emergent Serious Adverse Events, % (EF22%): (60.7%) | Positively Adjudicated Myocardial Infarction, % (EF22%): 3.3% | Serious Adverse Event: Ventricular Arrhythmia Requiring Treatment, % (EF22%): 3.6% | Adjudicated First Major Cardiac Ischemic Events, Relative Risk (EF22%): RR: 1.19 | Adjudicated First Stroke, Relative Risk (EF22%): RR: 0.65 | Adverse Event: Ventricular Tachyarrhythmia, Relative Risk (EF22%): RR: 1.00 | All-cause Death ARR (EF22%): 0.8 per 100 patient years | All-cause Death HR (95% CI) (EF22%): 0.98 (0.84, 1.14) | Any treatment Emergent Serious Adverse Events, Relative Risk (EF22%): RR: 0.94 | Positively Adjudicated Myocardial Infarction, Relative Risk (EF22%): RR: 1.22 | Serious Adverse Event: Ventricular Arrhythmia Requiring Treatment, Relative Risk (EF22%): RR: 0.88 | 1st HF Hospitalization (%) (EF 23-28%): (27%) | 1st HF Hospitalization Rate (EF 23-28%): 17.8 per 100 patient years | 1st HF Hospitalization n/N (EF 23-28%): 295/1086 | Adjudicated First Major Cardiac Ischemic Events, % (EF 23-28%): 4.3% | Adjudicated First Stroke, % (EF 23-28%): 1.8% | Adverse Event: Ventricular Tachyarrhythmia, % (EF 23-28%): 8.3% | All-cause Death (%) (EF 23-28%): (26%) | All-cause Death Rate (EF 23-28%): 14.4 per 100 patient years | All-cause Death n/N (EF 23-28%): 278/1086 | Any treatment Emergent Serious Adverse Events, % (EF 23-28%): (56.9%) | First HF Event (%) (EF 23-28%): (28%) | First HF Event Rate (EF 23-28%): 18.5 per 100 patient years | First HF Event n/N (EF 23-28%): 304/1086 | Positively Adjudicated Myocardial Infarction, % (EF 23-28%): 2.7% | Primary Outcome (%) (EF 23-28%): (36%) | Primary Outcome Rate (EF 23-28%): 24.0 per 100 patient years | Primary Outcome n/N (EF 23-28%): 393/1086 | Serious Adverse Event: Ventricular Arrhythmia Requiring Treatment, % (EF 23-28%): 3.2% | Total HF Events, Events (EF 23-28%): 577 | Total HF Events, Rate (EF 23-28%): 30.0 per 100 pt-yrs | Total HF Hospitalizations, Events (EF 23-28%): 541 | Total HF Hospitalizations, Rate (EF 23-28%): 28.1 per 100 pt-yrs | 1st HF Hospitalization ARR (EF 23-28%): 1.8 per 100 patient years | 1st HF Hospitalization HR (95% CI) (EF 23-28%): 0.86 (0.74, 1.01) | Adjudicated First Major Cardiac Ischemic Events, Relative Risk (EF 23-28%): 1.00 | Adjudicated First Stroke, Relative Risk (EF 23-28%): 0.53 | Adverse Event: Ventricular Tachyarrhythmia, Relative Risk (EF 23-28%): 0.98 | All-cause Death ARR (EF 23-28%): 1.4 per 100 patient years | All-cause Death HR (95% CI) (EF 23-28%): 0.89 (0.76, 1.05) | Any treatment Emergent Serious Adverse Events, Relative Risk (EF 23-28%): 0.96 | First HF Event ARR (EF 23-28%): 2.4 per 100 patient years | First HF Event HR (95% CI) (EF 23-28%): 0.84 (0.72, 0.98) | Positively Adjudicated Myocardial Infarction, Relative Risk (EF 23-28%): 0.89 | Primary Outcome ARR (EF 23-28%): 3.3 per 100 patient years | Primary Outcome HR (95% CI) (EF 23-28%): 0.85 (0.74, 0.97) | Serious Adverse Event: Ventricular Arrhythmia Requiring Treatment, Relative Risk (EF 23-28%): 1.04 | Total HF Events, ARR (EF 23-28%): 4.0 per 100 pt-yrs | Total HF Events, Ratio (95% CI) (EF 23-28%): 0.83 (0.68, 1.01) | Total HF Hospitalizations, ARR (EF 23-28%): 3.2 per 100 pt-yrs | Total HF Hospitalizations, Ratio (95% CI) (EF 23-28%): 0.84 (0.69, 1.02) | Creatinine, Treatment Difference [1]: 0.01 mg/dL | Heart rate, Treatment Difference [1]: −1.7 bpm | KCCQ Total Symptom Score, Treatment Difference, least squares mean [1]: −0.6 | NT-proBNP (Ratio) [1]: 0.90 | Potassium, Treatment Difference [1]: -0.01 mmol/L | Systolic BP, Treatment Difference [1]: −0.6 mmHg | Troponin I (Ratio) [1]: 1.29 | Troponin I, Treatment Difference (95% CI) [1]: 4 (3, 5) ng/L | 1st HF Hospitalization (%) (EF 29-32%): (27%) | 1st HF Hospitalization Rate (EF 29-32%): 17.6 per 100 patient years | 1st HF Hospitalization n/N (EF 29-32%): 279/1015 | Adjudicated First Major Cardiac Ischemic Events, % (EF 29-32%): 4.1% | Adjudicated First Stroke, % (EF 29-32%): 2.4% | Adverse Event: Ventricular Tachyarrhythmia, % (EF 29-32%): 6.9% | All-cause Death (%) (EF 29-32%): (26%) | All-cause Death Rate (EF 29-32%): 13.9 per 100 patient years | All-cause Death n/N (EF 29-32%): 260/1015 | Any treatment Emergent Serious Adverse Events, % (EF 29-32%): (57.3%) | First HF Event (%) (EF 29-32%): (28%) | First HF Event Rate (EF 29-32%): 18.2 per 100 patient years | First HF Event n/N (EF 29-32%): 286/1015 | Positively Adjudicated Myocardial Infarction, % (EF 29-32%): 2.2% | Primary Outcome (%) (EF 29-32%): (37%) | Primary Outcome Rate (EF 29-32%): 23.8 per 100 patient years | Primary Outcome n/N (EF 29-32%): 375/1015 | Serious Adverse Event: Ventricular Arrhythmia Requiring Treatment, % (EF 29-32%): 2.1% | Total HF Events, Events (EF 29-32%): 506 | Total HF Events, Rate (EF 29-32%): 27.1 per 100 pt-yrs | Total HF Hospitalizations, Events (EF 29-32%): 472 | Total HF Hospitalizations, Rate (EF 29-32%): 25.3 per 100 pt-yrs | 1st HF Hospitalization ARR (EF 29-32%): −2.1 per 100 patient years | 1st HF Hospitalization HR (95% CI) (EF 29-32%): 1.19 (1.01, 1.42) | Adjudicated First Major Cardiac Ischemic Events, Relative Risk (EF 29-32%): 1.08 | Adjudicated First Stroke, Relative Risk (EF 29-32%): 0.83 | Adverse Event: Ventricular Tachyarrhythmia, Relative Risk (EF 29-32%): 0.96 | All-cause Death ARR (EF 29-32%): −2.0 per 100 patient years | All-cause Death HR (95% CI) (EF 29-32%): 1.19 (0.99, 1.42) | Any treatment Emergent Serious Adverse Events, Relative Risk (EF 29-32%): 0.99 | First HF Event ARR (EF 29-32%): −1.3 per 100 patient years | First HF Event HR (95% CI) (EF 29-32%): 1.13 (0.96, 1.33) | Positively Adjudicated Myocardial Infarction, Relative Risk (EF 29-32%): 1.00 | Primary Outcome ARR (EF 29-32%): −1.4 per 100 patient years | Primary Outcome HR (95% CI) (EF 29-32%): 1.11 (0.96, 1.28) | Serious Adverse Event: Ventricular Arrhythmia Requiring Treatment, Relative Risk (EF 29-32%): 0.78 | Total HF Events, ARR (EF 29-32%): 0.6 per 100 pt-yrs | Total HF Events, Ratio (95% CI) (EF 29-32%): 1.14 (0.93, 1.40) | Total HF Hospitalizations, ARR (EF 29-32%): −0.1 per 100 pt-yrs | Total HF Hospitalizations, Ratio (95% CI) (EF 29-32%): 1.18 (0.96, 1.46) | Creatinine, Treatment Difference [2]: 0.01 mg/dL | Heart rate, Treatment Difference [2]: −1.9 bpm | KCCQ Total Symptom Score, Treatment Difference, least squares mean [2]: +0.3 | NT-proBNP (Ratio) [2]: 0.95 | Potassium, Treatment Difference [2]: -0.01 mmol/L | Systolic BP, Treatment Difference [2]: −0.6 mmHg
